{"source": "paper PMC5017735", "about": "“A Novel Peptide Derived from the Fusion Protein Heptad Repeat Inhibits Replication of Subacute Sclerosing Panencephalitis Virus In Vitro and In Vivo” (PLoS ONE, 2016)", "key": {"SSPE Yamagata-1 strain [1]": {"tested_on": "SSPE Yamagata-1 strain", "experiment": "Viral RNA quantification in whole brain of SSPE virus-infected nude mice", "assay_type": "in vivo, BALB/cAJcl-nu/nu mice", "conditions": "day 14 post-infection; intracranial peptide; n = 5 per group; P < 0.05", "description": "Mice were divided in three groups (n = 5 for each cage) and housed with free access to both water and food and monitored daily. Mice were infected with SSPE virus intracranially in the same as animal survival experiments. Euthanasia was performed by cervical dislocation under isoflurane anesthesia on day 14 post-infection. The brain of each mouse was immediately harvested and mechanically homogenized with 2 ml Vero/SLAM cell growth medium using a PRO200 handheld or post-mounted homogenizer (PRO Scientific Inc., CT, USA). The homogenized brains were stored at −80°C. Viral RNA was extracted using ISOGEN-LS, and cDNA was synthesized using a reverse transcription kit (PrimeScript RT-reagent kit). MV RNA was quantified using a TaqMan real-time polymerase chain reaction assay, as previously described. The primer and probe were designed based on the MV Edmonston strain N gene, as previously reported. PCR amplification was performed using a 7300 Real-Time PCR system (Applied Biosystem). The control plasmid was produced by Dragon Genomics Center (Takara Bio, Mie, Japan) based on the MV Edmonston strain N gene (position 1321–1500)."}, "SSPE virus": {"tested_on": "SSPE virus", "experiment": "Time-of-addition experiments, SSPE virus in Vero cells", "assay_type": "cell-based, SSPE virus (variant measles virus)", "description": "Synthetic peptides, M1 and M2EK (10 μM each) were used in time-of-addition experiments. Each peptide was added to Vero cells at three distinct time points: prior to infection (pretreatment with the compound), at the same time as the virus infection (simultaneous infection), or post-infection (post-entry). The SSPE virus was prepared to yield a reproducible number of syncytia in untreated control wells (approximately 50–100/well). In the pretreatment assay, peptide was added to confluent cells and incubated at 37°C for 30 min, and the cell cultures were washed with MEM before viral inoculation. Cells were then challenged with the SSPE virus at 0°C for 30 min. In the simultaneous infection assay, SSPE virus with peptide was inoculated at 0°C for 30 min. After the adsorption, the cell cultures were subsequently washed with MEM, and growth medium containing 0.75% methylcellulose was overlaid on the cell cultures, followed by incubation for 3 days in both pretreatment and simultaneous infection assays. In the post-entry assay, cells were challenged with the SSPE virus at 0°C for 30 min. After adsorption, the cell cultures were subsequently washed with MEM and peptide, which was prepared in growth medium containing 0.75% methylcellulose, was subsequently overlaid on the cell cultures at distinct time points. The starting point when cells were incubated at 0°C for 30 min was defined as t0."}, "MV Edmonston strain": {"tested_on": "MV Edmonston strain", "experiment": "Viral plaque reduction assay, measles virus in Vero cells", "assay_type": "cell-based", "conditions": "Vero cells", "description": "(§1) African green monkey kidney (Vero) cells and Vero cells expressing human SLAM (Vero/SLAM cells) were used in all experiments. The growth medium for Vero cells comprised minimal essential medium (MEM) supplemented with 10% heat-inactivated newborn bovine serum, penicillin G (100 IU/ml), streptomycin (100 μg/ml), and L-glutamine (300 μg/ml). The same growth medium, which was further supplemented with G418 (400 μg/ml), was used for Vero/SLAM cells. Cells were seeded into the wells (22 mm) of 12-well tissue culture plates at 1 × 10^5 cells/well and incubated at 37°C in a 10% CO2 incubator for 3 days, at which time they had just reached confluence. The virus strains used were human MV Edmonston strain and SSPE Yamagata-1 [34], which was originally isolated from the brain of an SSPE patient. The Edmonston strain of MV was used to inoculate Vero/SLAM cells and harvested after freeze–thawing infected cells. The SSPE Yamagata-1 strain was cultured in Vero/SLAM cells, harvested by trypsinization, prepared as an infected cell suspension in the Vero/SLAM cell medium supplemented with 10% dimethyl sulfoxide, and stored at −80°C until use.\n(§2) Screening was performed to evaluate the antiviral effects of each synthetic peptide against the MV and SSPE viruses using the viral plaque reduction assay. Based on the results of the peptide screening, the 50% effective concentration (EC50), i.e., the concentration of compounds required to inhibit virus plaque formation by 50%, was also determined. The Human MV Edmonston strain was used to produce cell-free virions, which yielded a reproducible number of syncytia [generally 200–300 plaque-forming units (PFUs)] in the control wells. The SSPE virus was also used to yield a reproducible number of syncytia (generally 70–150 PFU) in control wells. In the peptide screening assay, each synthetic peptide was used at a concentration of 10 μM. IFN-α and enfuvirtide, a peptide fusion inhibitor of HIV-1, were used as controls at a concentration of 250 IU/ml and 10 μM, respectively."}, "Vero/SLAM cells": {"tested_on": "Vero/SLAM cells", "experiment": "Methyl tetrazolium cytotoxicity assay, Vero/SLAM cells", "assay_type": "cell-based, African green monkey", "conditions": "confluent Vero/SLAM cells, 24 h, 37°C", "description": "(§3) Peptide cytotoxicity was determined using the methyl tetrazolium assay. Five-fold serial dilutions of peptides were added to confluent Vero or Vero/SLAM cells. Cells were then incubated at 37°C for 24 h, and the number of viable cells was determined using 3-(4,5-dimethyllthiazol-2-yl)-2,5-diphenylterazolium bromide (Sigma–Aldrich, Tokyo, Japan). The 50% cytotoxic concentration (CC50), which was defined as the concentration required to reduce the cell viability by 50% relative to that of untreated controls, was determined. The selectivity index (SI) was defined as the ratio of the CC50 relative to the EC50 value."}, "[2]": {"experiment": "In vivo toxicity, mice administered peptides alone", "design": "species or system BALB/cAJcl-nu/nu mice", "conditions": "peptide 100 μM intracranial, no virus infection", "description": "(§4) Based on a previous report, but with slight modifications, 3-week-old female BALB/cAJcl-nu/nu mice (CLEA Japan Inc., Tokyo, Japan) were used in the animal experiments. Mice were divided in four groups (n = 6 for each cage) and housed with free access to both water and food and monitored daily. The mice were SSPE virus-infected or mock-infected (MEM alone) intracranially. An SSPE virus-infected cell suspension containing 250 PFU/ 30 μl (100% lethal dose) was inoculated into the subarachnoid space of nude mice using a 27-gauge double needle at a depth of 2 mm. Each compound was prepared at a concentration of 100 μM and was injected intracranially at 0 (mixed with viruses), 6, and 24 h after the initial virus inoculation. All injections were performed under inhalational anesthesia with isoflurane. Each mouse was checked for neurological symptoms and weighed daily. The ethical endpoint was defined as <75% of their maximum weight because most mice would die within 24 h. On attaining this endpoint, the mice were sacrificed by cervical dislocation under inhalational anesthesia with isoflurane. In this experiment, five mice died of natural causes before the ethical endpoint; however, all mice had neurological symptoms and 9.5%, 13.2%,14.5%, 15.8%, 16.4% weight loss (one each) relative to their maximum weight. This study was approved by the control of the Animal Research Committee in accordance with the Guidelines on Animal Experiments in Fukushima Medical University and the Rules for the Protection and Care of Animals (approval number: 23038)."}, "SSPE Yamagata-1 strain [3]": {"tested_on": "SSPE Yamagata-1 strain", "experiment": "Viral plaque reduction assay, SSPE virus in Vero/SLAM cells", "assay_type": "cell-based, SSPE virus (variant measles virus)", "description": "as §1, §2"}, "SSPE Yamagata-1 strain [4]": {"tested_on": "SSPE Yamagata-1 strain", "experiment": "Animal survival experiment, SSPE virus-infected nude mouse model", "assay_type": "in vivo, BALB/cAJcl-nu/nu mice", "conditions": "SSPE virus 250 PFU intracranial; peptide 100 μM intracranial at 0, 6 and 24 h; n = 6; control group 0%", "description": "as §4, with “This study was approved by the control of the Animal Research Committee in accordance with the Guidelines on Animal Experiments in Fukushima Medical University and the Rules for the Protection and Care of Animals (approval number: 23038).” left out"}, "Vero cells": {"tested_on": "Vero cells", "experiment": "Methyl tetrazolium cytotoxicity assay, Vero cells", "assay_type": "cell-based, African green monkey", "conditions": "confluent Vero cells, 24 h, 37°C", "description": "as §3"}, "SSPE Yamagata-1 strain [5]": {"tested_on": "SSPE Yamagata-1 strain", "experiment": "Viral plaque reduction assay, SSPE virus in Vero cells", "assay_type": "cell-based, SSPE virus (variant measles virus)", "description": "as §1, §2"}, "[6]": {"conditions": "selectivity index, ratio of CC50 relative to EC50"}}, "note": "Peptide text beside a SMILES is read from it.", "data": [{"smiles": "CC[C@H](C)[C@H](NC(=O)[C@H](CCC(=O)O)NC(=O)[C@H](CCC(=O)O)NC(=O)[C@H](CO)NC(=O)[C@H](CCCCN)NC(=O)[C@H](CCCCN)NC(=O)[C@H](CC(C)C)NC(=O)[C@H](CC(C)C)NC(=O)[C@H](CCC(=O)O)NC(=O)[C@H](CCC(=O)O)NC(=O)[C@H](C)NC(=O)[C@H](CCCCN)NC(=O)[C@H](CCCCN)NC(=O)[C@H](CC(C)C)NC(=O)[C@H](CCCCN)NC(=O)[C@H](CCC(=O)O)NC(=O)[C@H](CCC(=O)O)NC(=O)[C@H](C)NC(=O)[C@H](CCCCN)NC(=O)[C@H](CCCCN)NC(=O)[C@H](CC(C)C)NC(=O)[C@H](CC(N)=O)NC(=O)[C@H](CCC(=O)O)NC(=O)[C@H](CCC(=O)O)NC(=O)[C@@H](NC(C)=O)C(C)C)C(=O)N[C@@H](CC(C)C)C(=O)N[C@@H](CCCCN)C(=O)N[C@@H](CCCCN)C(=O)N[C@@H](CCSC)C(=O)N[C@@H](CCC(=O)O)C(=O)N[C@@H](CCC(=O)O)C(=O)N[C@@H](CC(C)C)C(=O)N[C@@H](CO)C(=O)N[C@@H](CCCCN)C(=O)N[C@@H](CCCCN)C(N)=O", "note": "[Peptide M2EK] (Ac-VEENLKKAEEKLKKAEELLKKSEEILKKMEELSKK-NH2)", "values": [{"measurement": "viral RNA copies in whole brain, lower than in M1-treated mice", "setting": "SSPE Yamagata-1 strain [1]", "result": "approximately four"}, {"measurement": "viral RNA copies in whole brain, lower than in enfuvirtide-treated mice", "setting": "SSPE Yamagata-1 strain [1]", "result": "approximately three"}, {"measurement": "viral inhibitory effect, peptide added post-infection (post-entry)", "setting": "SSPE virus; peptide 10 μM overlaid at distinct time points after adsorption", "result": "observed in a time-dependent manner, particularly within 24 h"}, {"measurement": "viral plaque numbers, peptide added before viral adsorption or at the same time as virus inoculation", "setting": "SSPE virus; peptide 10 μM, pretreatment 37°C 30 min or simultaneous with SSPE virus 0°C 30 min, compared with control", "result": "no reduction in viral plaque numbers"}, {"measurement": "EC50", "setting": "MV Edmonston strain; plaque reduction, MV Edmonston strain, mean ± SD", "result": "100 ± 70", "unit": "nM"}, {"measurement": "SI, measles virus (Vero cells)", "setting": "MV Edmonston strain; [6]", "result": ">989"}, {"measurement": "CC50, SSPE virus (Vero/SLAM cells)", "setting": "Vero/SLAM cells", "result": ">100000", "unit": "nM"}, {"measurement": "survival of mice administered with peptides alone, with no symptoms", "setting": "[2]", "result": "> 45", "unit": "days"}, {"measurement": "EC50", "setting": "SSPE Yamagata-1 strain [3]; plaque reduction, SSPE Yamagata-1 strain, mean ± SD", "result": "20 ± 10", "unit": "nM"}, {"measurement": "SI, SSPE virus (Vero/SLAM cells)", "setting": "SSPE Yamagata-1 strain [3]; [6]", "result": ">6579"}, {"measurement": "survival rate", "setting": "SSPE Yamagata-1 strain [4]", "result": 67, "unit": "%"}, {"measurement": "CC50, SSPE virus (Vero cells)", "setting": "Vero cells", "result": ">100000", "unit": "nM"}, {"measurement": "CC50, measles virus (Vero cells)", "setting": "Vero cells", "result": ">100000", "unit": "nM"}, {"measurement": "inhibition of plaque formation compared with the control group, SSPE Yamagata-1 strain (peptide screening)", "setting": "SSPE Yamagata-1 strain [5]; peptide 10 μM, Vero cells and Vero/SLAM cells (Fig 2C), duplicate, at least twice independently", "result": "> 97", "unit": "%"}, {"measurement": "EC50", "setting": "SSPE Yamagata-1 strain [5]; plaque reduction, SSPE Yamagata-1 strain, Vero cells, mean ± SD", "result": "50 ± 30", "unit": "nM"}, {"measurement": "SI, SSPE virus (Vero cells)", "setting": "SSPE Yamagata-1 strain [5]; selectivity index, ratio of CC50 relative to EC50, Vero cells", "result": ">2041"}]}]}
